Reference: article PMC12175907 (Science Advances, 2025)

Legend:
shrews [1] = experiment: emesis, semaglutide, GIP-085 and combo, shrews; format: in vivo, Suncus murinus; conditions: semaglutide 500 nmol/kg ip; 120 min; n = 10
Source text: (§1) Adult male shrews (S. murinus) weighing ~50 to 80 g (n = 84 total) were bred and maintained in the De Jonghe Lab (University of Pennsylvania). These animals were offspring from a colony previously maintained at the University of Pittsburgh Cancer Institute (C. Horn); a Taiwanese strain was derived from stock originally supplied by the Chinese University of Hong Kong. Shrews were singly housed in plastic cages (37.3 cm by 23.4 cm by 14 cm, Innovive) under a 12-hour/12-hour light/dark cycle in a temperature-controlled and humidity-controlled environment. Animal were fed ad libitum with a mixture of feline (75%, Laboratory Feline Diet 5003, Lab Diet) and mink food (25%, High Density Ferret Diet 5LI4, Lab Diet) and had ad libitum access to tap water except where noted.
We then evaluated the emetogenic actions of semaglutide (500 nmol/kg), GIP-085 (300 nmol/kg), GIP-085/semaglutide, or vehicle in a different cohort of shrews (n = 10). The animals were habituated to the experimental conditions as described above, injected intraperitoneally with semaglutide ([…]), GIP-085 (300 nmol/kg), GIP-085/semaglutide, or vehicle and then video-recorded (Vixia HF-R62, Canon) for 120 min. After 120 min, the animals were returned to their cages. Treatments were separated by 7 days. Emesis parameters were quantified as described above.

DIO wild-type mice = experiment: body composition (ECHO MRI), DIO wild-type mice; format: in vivo, C57BL/6 mouse; conditions: 16 days daily sc, GIP-085 300 nmol/kg, semaglutide 3 nmol/kg, mean ± SEM, n=5-6 per group
Method: C57BL/6 wild-type (n = 23), GLP-1R KO (n = 24), and GIPR KO mice (n = 24) received daily subcutaneous administration of GIP-085 (300 nmol/kg), semaglutide (3 nmol/kg), GIP-085/semaglutide combo, or vehicle for 16 days. Food intake and body weight were manually measured daily. The average body weight at the start of the experiment was 43.7 ± 0.4 g for the wild-type group, 39.0 ± 0.6 g for the GLP-1R KO group, and 36.5 ± 0.4 g for the GIPR KO group. Body composition of mice was determined using quantitative nuclear magnetic resonance analysis (ECHO MRI, 3-1 Composition Analyzer; Echo Medical Systems). At the end of the experiment, the animals were euthanized by CO2.

shrews [2] = experiment: food intake and body weight, semaglutide, GIP-085 and combo, shrews; format: in vivo, Suncus murinus; conditions: semaglutide alone, 500 nmol/kg ip; n = 8
Source text: as §1
First, we compared the effects of semaglutide (500 nmol/kg), GIP-085 (300 nmol/kg), GIP-085/semaglutide, or vehicle on food intake and body weight in the same animals (n = 8, ~54 ± 2 g) using in a within-subject, counterbalanced design. This experiment was conducted as described above. Each treatment was 7 days apart.

DIO GIPR KO mice = experiment: chronic treatment, food intake and body weight, DIO GIPR KO mice; format: in vivo, mouse; conditions: inferred from GIPR KO DIO mice
Source text: DIO adult male C57BL/6 mice (Taconic) C57BL/6 (n = 23, weighing ~43 g at arrival), GLP-1R KO (germline knockout line: 11549, n = 24, weighing ~38 g at arrival), and GIPR KO mice (germline knockout line: 2886, n = 24, weighing ~35 g at arrival) were used. Upon arrival, mice were individually housed and continued to be fed ad libitum on high-fat/high-sugar diet (60% fat diet, 12492, Research Diets).
(§2) GIPFA-085 (GIP-085), tirzepatide, and GLP-140 were designed and produced by Eli Lilly and Company. GIP-085, GLP-140, and semaglutide (Cayman Chemical) were dissolved in 40 mM tris-HCl buffer (pH 8) and 0.02% Tween 80. For the study in mice, all drugs were injected subcutaneously at a volume of 5 ml/kg of body weight. In rats, all drugs were injected intraperitoneally, at a volume of 1 ml/kg of body weight, except when noted. In shrews, all drugs were injected intraperitoneally at a volume of 10 ml/kg of body weight.
C57BL/6 wild-type (n = 23), GLP-1R KO (n = 24), and GIPR KO mice (n = 24) received daily subcutaneous administration of GIP-085 (300 nmol/kg), semaglutide (3 nmol/kg), GIP-085/semaglutide combo, or vehicle for 16 days. Food intake and body weight were manually measured daily. […] Body composition of mice was determined using quantitative nuclear magnetic resonance analysis (ECHO MRI, 3-1 Composition Analyzer; Echo Medical Systems). […]

rats = experiment: food and kaolin consumption and body weight in rats (semaglutide, tirzepatide); format: in vivo, Sprague-Dawley rat
Source text: Adult male Sprague-Dawley rats (Charles River) weighing ~250 to 270 g (n = 45) at arrival were housed under a 12-hour/12-hour light/dark cycle in a temperature-controlled and humidity-controlled vivarium. Rats were individually housed in hanging wire-bottom cage with ad libitum access to chow diet (Purina Lab Diet 5001) or, when noted, to high-fat/high-sugar diet (60% fat diet, 12492, Research Diets) and tap water and had ad libitum access to kaolin pellets (Research Diets, K50001). Rats were exposed to kaolin for at least 5 days prior to measuring kaolin consumption in pica testing. Kaolin intake and food consumption were measured simultaneously as the presence of kaolin in the cage, and its subsequent ingestion, has usually negligible effects on the hypophagic and body weight–lowering effects of the treatments.
as §2
In two separate cohorts of rats (n = 10 per group, body weight ~ 460 ± 9 g), food consumption, kaolin intake, and body weight were measured after an intraperitoneal administration of vehicle, semaglutide (10 and 100 nmol/kg), or tirzepatide (10 and 100 nmol/kg), respectively. Food and kaolin intake were measured at 3, 6, 24, and 48 hours postinjection, and body weight was measured at 0, 24, and 48 hours. For each drug, a within-subject paradigm was used, with each round of injections separated by 7 days.

shrews [3] = experiment: IPGTT, semaglutide, shrews; format: in vivo, Suncus murinus; conditions: 10, 100 and 500 nmol/kg ip, 30 min before glucose 2 g/kg ip, 20 min post-glucose, n = 8 per group
Source text: as §1
The protocol for performing an IPGTT in shrews (n = 16) was previously described ([27]). Briefly, each shrews received intraperitoneal injection of semaglutide (10, 100, and 500 nmol/kg) or vehicle (10 ml/kg body weight) followed 30 min later by a glucose bolus injection [2 g/kg, intraperitoneally (ip)]. Blood glucose readings were taken at −30, 0, 20, 40, 60, and 120 min post-glucose administration. This study was conducted using a partial within-subject design, with each animal receiving two treatments separated by a 7-day interval.

[4] = 100 nmol/kg ip, n = 10 to 20 per group
[5] = 10 and 100 nmol/kg ip, n = 10 per group, vs vehicle

Which results are given for semaglutide?
shrews that experienced emesis (shrews [1]): 60%; total fat mass at the end of the experiment (DIO wild-type mice; Veh: 17.9±0.5g): 12.2 ± 0.8 g; total lean mass at the end of the experiment (DIO wild-type mice; Veh: 24.8±0.6g): 24.6 ± 0.7 g; body weight (shrews [2]): body weight loss; food intake (shrews [2]): induced anorexia; cross-reactivity at the GIPR (DIO GIPR KO mice): lack of cross-reactivity; kaolin intake (rats; 100 nmol/kg ip, n = 10 per group, vs vehicle): causes significant malaise (i.e., kaolin intake); hypophagic responses, semaglutide vs tirzepatide (rats; [4]): comparable hypophagic responses; kaolin consumption, semaglutide vs tirzepatide (rats; [4]): significantly higher than that caused by tirzepatide; kaolin consumption, semaglutide vs tirzepatide (rats; 100 nmol/kg ip, n = 10 to 20 per group, listed as Semaglutide): induces higher kaolin consumption than tirzepatide treatment; body weight (rats; [5]): causes body weight loss in a dose-dependent manner; food intake (rats; [5]): dose-dependently suppresses food intake; blood glucose levels following glucose (shrews [3]): significantly reduced glucose levels in a dose-dependent manner; blood glucose levels following glucose (shrews [3]; listed as Semaglutide): dose-dependently suppresses blood glucose levels
